According to PubChem BioAssay AID328 (DTP/NCI, 2004):
Several values for one entry are separate records, joined by “and”; a condition that tells them apart may be missing. Equal values may be shown once. Inconclusive results and toxic doses are left out. Rule for the calls: active = survival T/C of 150% or more; inactive = T/C below 125% in these data.

System: BDF1 mice, P388 leukemia ip, median survival T/C
Assay: NCI In Vivo Anticancer Drug Screen. Data for tumor model P388 Leukemia (intraperitoneal) in B6D2F1 (BDF1) mice
Conditions: endpoint: median survival time, higher = longer survival
Outline: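 Mice carrying the transplantable tumour receive compound or vehicle. Survival is followed in each arm, and the treated measure is divided by the vehicle measure.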

[1] = dose: 100.0 mg/kg/injection, schedule: Q01DX009 (ip), vehicle: saline with Tween-80
[2] = dose: 200.0 mg/kg/injection, schedule: Q01DX009 (ip), vehicle: saline with Tween-80
[3] = dose: 400.0 mg/kg/injection, schedule: Q01DX009 (ip), vehicle: saline with Tween-80
[4] = dose: 25.0 mg/kg/injection, schedule: Q01DX009 (ip), vehicle: water
[5] = dose: 50.0 mg/kg/injection, schedule: Q01DX009 (ip), vehicle: water
[6] = dose: 50.0 mg/kg/injection, schedule: Q04DX003 (ip), vehicle: water
[7] = dose: 100.0 mg/kg/injection, schedule: Q01DX009 (ip), vehicle: water
[8] = dose: 100.0 mg/kg/injection, schedule: Q04DX003 (ip), vehicle: water
[9] = dose: 200.0 mg/kg/injection, schedule: Q04DX003 (ip), vehicle: water
[10] = dose: 6.25 mg/kg/injection, schedule: Q04DX003 (ip), vehicle: water
[11] = dose: 12.5 mg/kg/injection, schedule: Q04DX003 (ip), vehicle: water
[12] = dose: 25.0 mg/kg/injection, schedule: Q04DX003 (ip), vehicle: water
[13] = dose: 200.0 mg/kg/injection, schedule: Q01DX009 (ip), vehicle: Klucel (hydroxypropylcellulose) (HPC)
[14] = dose: 200.0 mg/kg/injection, schedule: Q01DX009 (ip), vehicle: water
[15] = dose: 400.0 mg/kg/injection, schedule: Q04DX003 (ip), vehicle: water
[16] = dose: 100.0 mg/kg/injection, schedule: Q04DX003 (ip), vehicle: saline with Tween-80
[17] = dose: 200.0 mg/kg/injection, schedule: Q04DX003 (ip), vehicle: saline with Tween-80
[18] = dose: 400.0 mg/kg/injection, schedule: Q04DX003 (ip), vehicle: saline with Tween-80
[19] = dose: 100.0 mg/kg/injection, schedule: Q01DX009 (ip), vehicle: saline
[20] = dose: 25.0 mg/kg/injection, schedule: Q01DX009 (ip), vehicle: saline with Tween-80
[21] = dose: 50.0 mg/kg/injection, schedule: Q01DX009 (ip), vehicle: saline with Tween-80
[22] = dose: 12.5 mg/kg/injection, schedule: Q01DX009 (ip), vehicle: saline
[23] = dose: 25.0 mg/kg/injection, schedule: Q01DX009 (ip), vehicle: saline
[24] = dose: 50.0 mg/kg/injection, schedule: Q04DX003 (ip), vehicle: saline
[25] = dose: 100.0 mg/kg/injection, schedule: Q04DX003 (ip), vehicle: saline
[26] = dose: 200.0 mg/kg/injection, schedule: Q04DX003 (ip), vehicle: saline
[27] = dose: 12.5 mg/kg/injection, schedule: Q01DX009 (ip), vehicle: saline with Tween-80

Measured: T/C

Cc1c(NC(=O)Nc2cccc(F)c2)c(=O)n(-c2ccccc2)n1C
inactive: [1] 120 % of control | [2] 95 % of control | [3] 90 % of control

CC(OC(=O)Nc1ccccc1)C(=O)O (configuration not stated)
inactive: [1] 88 % of control | [2] 92 % of control | [3] 103 % of control

N=C(N)c1ccc(C(=N)N)cc1
inactive: [4] 100 % of control | [5] 94 % of control | [6] 95 % of control | [7] 100 % of control | [8] 100 % of control | [9] 100 % of control

COC(=O)C(N)CSCSCc1ccccc1 (configuration not stated)
inactive: [10] 109 % of control | [11] 113 % of control | [12] 104 % of control | [6] 100 % of control | [8] 100 % of control

CC(=O)OCCC/C(=C\c1ccc2ccccc2c1)[N+](=O)[O-]
inactive: dose: 100.0 mg/kg/injection, schedule: Q01DX009 (ip), vehicle: Klucel (hydroxypropylcellulose) (HPC) 118 % of control | [13] 122 % of control

CCOC(=O)C(I)CC (configuration not stated)
inactive: [10] 100 % of control | dose: 12.5 mg/kg/injection, schedule: Q01DX009 (ip), vehicle: water 105 % of control | [11] 100 % of control | [4] 98 % of control | [12] 105 % of control | [5] 107 % of control | [6] 101 % of control | [7] 116 % of control | [8] 96 % of control | [14] 123 % of control | [9] 98 % of control and 104 % of control | dose: 300.0 mg/kg/injection, schedule: Q04DX003 (ip), vehicle: water 110 % of control | [15] 104 % of control

O=C1C=CC(=O)c2c(Cl)ccc(O)c21
inactive: dose: 0.63 mg/kg/injection, schedule: Q01DX009 (ip), vehicle: Klucel (hydroxypropylcellulose) (HPC) 116 % of control

CCCCCCc1ccccc1
inactive: [16] 109 % of control | [17] 109 % of control | [18] 118 % of control

c1ccc(CSC2=NCCS2)cc1
inactive: [19] 113 % of control | dose: 200.0 mg/kg/injection, schedule: Q01DX009 (ip), vehicle: saline 104 % of control | dose: 400.0 mg/kg/injection, schedule: Q01DX009 (ip), vehicle: saline 113 % of control

O=C1C(Br)=Cc2cccc3cccc1c23
230 % of control and 107 % of control: [2]
inactive: [20] 111 % of control | [21] 105 % of control | [1] 107 % of control | [16] 95 % of control | [17] 104 % of control | [3] 100 % of control | [18] 104 % of control

Nc1nc(Cl)c(C=O)c(Cl)n1
active: [21] 241 % of control

CCCCC/C(C=C(C#N)C#N)=C/c1ccccc1
inactive: [20] 100 % of control | [1] 119 % of control

C[N+]1(C)CCCCC1
inactive: [22] 95 % of control and 100 % of control | dose: 12.5 mg/kg/injection, schedule: Q04DX003 (ip), vehicle: saline with Tween-80 101 % of control | [23] 98 % of control and 100 % of control | [24] 100 % of control

N=C(N)SCc1c2ccccc2cc2ccccc12
inactive: dose: 300.0 mg/kg/injection, schedule: Q04DX003 (ip), vehicle: saline with Tween-80 90 % of control
active: [17] 163 % of control

CCOc1nc(SCC)ncc1C
inactive: [5] 109 % of control | [7] 101 % of control | [8] 99 % of control | [14] 108 % of control | [9] 103 % of control | [15] 107 % of control

Cc1cc(Cl)nc(Cl)c1C(N)=O
inactive: dose: 50.0 mg/kg/injection, schedule: Q01DX005 (ip), vehicle: saline with Tween-80 100 % of control | dose: 100.0 mg/kg/injection, schedule: Q01DX005 (ip), vehicle: saline with Tween-80 100 % of control | dose: 200.0 mg/kg/injection, schedule: Q01DX005 (ip), vehicle: saline with Tween-80 100 % of control

Oc1ccc(N=Cc2ccccc2O)cc1
inactive: [19] 108 % of control | [25] 105 % of control | [26] 100 % of control | dose: 400.0 mg/kg/injection, schedule: Q04DX003 (ip), vehicle: saline 110 % of control

Clc1cc(Cl)c(CBr)cc1CBr
inactive: dose: 3.13 mg/kg/injection, schedule: Q01DX009 (ip), vehicle: saline with Tween-80 109 % of control | dose: 6.25 mg/kg/injection, schedule: Q01DX009 (ip), vehicle: saline with Tween-80 100 % of control | [27] 104 % of control

CC1(C)O[C@@H]2C[C@H]3[C@@H]4CCC5=CC(=O)CC[C@]5(C)[C@@]4(F)[C@@H](O)C[C@]3(C)[C@]2(C(=O)CO)O1
inactive: [16] 108 % of control | [17] 108 % of control | [18] 100 % of control

CN=S(=O)(OC/C=C/COS(=O)(=NC)c1ccc(C)cc1)c1ccc(C)cc1 (configuration not stated)
inactive: [27] 95 % of control | [20] 110 % of control | dose: 50.0 mg/kg/injection, schedule: Q01DX009 (ip), vehicle: saline + alcohol 121 % of control | [1] 100 % of control

C[C@]12CC[C@H]3[C@@H](CC[C@]4(O)C[C@@H](O)CC[C@]34C=O)[C@@]1(O)CC[C@@H]2c1ccc(=O)oc1
inactive: dose: 13.7 mg/kg/injection, schedule: Q01DX010 (ip), vehicle: carboxymethylcellulose (CMC) 95 % of control | dose: 27.5 mg/kg/injection, schedule: Q01DX010 (ip), vehicle: carboxymethylcellulose (CMC) 100 % of control

C[C@]12CC[C@H]3[C@@H](CC[C@@H]4C[C@@H](O)CC[C@@]43C=O)[C@]13O[C@@H]3CC2c1ccc(=O)oc1 (some centres not stated)
inactive: dose: 0.25 mg/kg/injection, schedule: Q01DX009 (ip), vehicle: Klucel (hydroxypropylcellulose) (HPC) 100 % of control | dose: 0.5 mg/kg/injection, schedule: Q01DX009 (ip), vehicle: Klucel (hydroxypropylcellulose) (HPC) 98 % of control | dose: 1.0 mg/kg/injection, schedule: Q01DX009 (ip), vehicle: Klucel (hydroxypropylcellulose) (HPC) 98 % of control | dose: 2.0 mg/kg/injection, schedule: Q01DX009 (ip), vehicle: Klucel (hydroxypropylcellulose) (HPC) 100 % of control

NC(N)=Nc1ccc(S(=O)(=O)O)cc1
inactive: [22] 108 % of control | [23] 108 % of control | dose: 50.0 mg/kg/injection, schedule: Q01DX009 (ip), vehicle: saline 91 % of control | [19] 106 % of control

COc1ccc(OC)c(/C=C/c2ccc3ccccc3n2)c1
inactive: dose: 50.0 mg/kg/injection, schedule: Q04DX003 (ip), vehicle: saline with Tween-80 105 % of control | [16] 100 % of control and 105 % of control | [17] 110 % of control | [18] 100 % of control

Cc1cccc(NC(=S)N(C)C)c1
inactive: [16] 95 % of control | [17] 100 % of control | [18] 100 % of control

O=c1[nH]c2nc(Cl)c(Cl)nc2[nH]1
inactive: [24] 113 % of control | [25] 106 % of control | [26] 111 % of control

C=C(C)C(=O)O[C@H]1CC2=CC(CC(C)=C[C@H]3OC(=O)C(=C)C13)OC2=O (some centres not stated)
inactive: dose: 12.5 mg/kg/injection, schedule: Q01DX001 (ip), vehicle: saline with Tween-80 109 % of control | dose: 25.0 mg/kg/injection, schedule: Q01DX001 (ip), vehicle: saline with Tween-80 120 % of control | dose: 50.0 mg/kg/injection, schedule: Q01DX001 (ip), vehicle: saline with Tween-80 107 % of control and 111 % of control

CSc1ssc(=Nc2ccc(C)cc2)c1-c1ccccc1
inactive: dose: 100.0 mg/kg/injection, schedule: Q04DX003 (ip), vehicle: Klucel (hydroxypropylcellulose) (HPC) 105 % of control | [13] 90 % of control | dose: 200.0 mg/kg/injection, schedule: Q04DX003 (ip), vehicle: Klucel (hydroxypropylcellulose) (HPC) 100 % of control | dose: 400.0 mg/kg/injection, schedule: Q01DX009 (ip), vehicle: Klucel (hydroxypropylcellulose) (HPC) 95 % of control | dose: 400.0 mg/kg/injection, schedule: Q04DX003 (ip), vehicle: Klucel (hydroxypropylcellulose) (HPC) 95 % of control

C=CCN(CC=C)c1ncnc2[nH]ncc12
inactive: [20] 100 % of control | [21] 100 % of control | [1] 109 % of control

O=C(O)CC(NC(=O)OCc1ccccc1)C(=O)OCc1ccccc1 (configuration not stated)
inactive: [21] 92 % of control | [1] 111 % of control | [16] 104 % of control | [2] 111 % of control | [17] 113 % of control | [3] 100 % of control | [18] 90 % of control
